Source: patent US10011562B2, “Long-chain dimethylaniline derivative compounds, their preparation methods, self-assembled textures, and uses thereof” (WEST CHINA HOSPITAL, SICHUAN UNIVERSITY, priority 2014, dated 2018)

Columns and labels:
Format in all cases: in vivo
sciatic nerve of rats [1] = assay: First local anesthetic experiment of rats: blocking of sciatic nerve, motor function by hindlimb postural extensor thrust (PET)
Experimental: (§1) Selected above micelle, positive control lidocaine, and negative control normal saline were respectively administrated to 28 groups of test rats fully adapted to experiment environment, with five rats for each group. The administration dosage is: the concentration of lidocaine group being 2% aqueous solution (84 mmol/L), and the concentration of tested drug being 5 mmol/L. The injection volume of each rat receiving drugs or the control was 0.2 ml, and the drug or the control was injected to close to sciatic nerve of rats by guidance of nerve locator.
(§2) The tested rats were placed on bench board and allowed to inhale 5% isoflurane. After body-righting reflex abolition, rats are allowed to continue inhaling 1.5% isoflurane, to keep anesthesia. Keeping left-lateral position, their corresponding injection area sacrococygeal region was shaved, then routine sterilization and draping were performed. Two osseous anatomic landmarks greater trochanter of femur and tuber is chiadicum were laid hands, and the middle point of this line was the needle insertion position. If skin was taut, 1 ml injector was inserted along perpendicular of skin. When needlepoint reached hucklebone, the insertion was finished. […] Needle was lifted, and is oflurane was shut off. Animals were placed in observation cage until they naturally awakened.
(§3) The hindlimb postural extensor thrust (PET) was used for evaluation. Rats were lifted vertically and their hindlimbs of injection side stepped on the top of electronic balance. At this time, the postural extensor thrust was shown as the value of balance. When limbs were completely paralytic, the digital reading was the weight of limbs, about 20 g. If the test value was more than half of the difference between the baseline and the limbs weight, the motor function was taken as recovery; If less than or equal to half of the difference, the motor function was taken as deprivation.
(§4) The interval between completion of injection and the time point that the motor function was firstly deprivated was the time of effective motor blocking; the interval between completion of injection and the time point that the motor function was firstly recovered was the time of ineffective motor blocking; their difference was the hold time of motor blocking.

sciatic nerve of rats [2] = assay: First local anesthetic experiment of rats: blocking of sciatic nerve, mechanical withdrawal threshold (VFH, von Frey filaments)
Experimental: as §1, §2
(§5) Rats were placed in transparent observation cages with a bottom of smooth metal sieve plate, and the corrected von frey filament was used to stimulate the foot lateral skin of rats (innervated region of sciatic nerve) from down to up. […] For each stimulation, slightly bent of filament was used as a standard, or rats moved aside this side of limbs. Otherwise, once the stimulation time reached 3 s, operator stopped stimulating. Three tests were carried out for each time point, and the interval between two tests was 5 min, to avoid sensibilization.
(§6) If the mechanical withdrawal threshold value was more than 60 g, the nerve blocking was considered as effective.

sciatic nerve of rats [3] = assay: Third local anesthetic experiment of rats: hydrogels embedded near the sciatic nerve, mechanical withdrawal threshold (VFH)
Experimental: as §5, §6
(§7) 25 mmol/L transparent uniform hydrogels of products obtained in Examples 7-10 and 13-32 were prepared under sterile conditions, as the method of Example 45, and kept for use.
(§8) Above hydrogels, positive control lidocaine, and negative control normal saline were respectively administrated to 35 groups of test rats fully adapted to experiment environment, with five rats for each group. The administration dosage is: the concentration of lidocaine group being 2% aqueous solution (84 mmol/L). The injection volume of each rat receiving drugs or the control was […], and the control was injected to near the sciatic nerve of rats by guidance of nerve locator; by surgery, the gels were embedded near the sciatic nerve of experimental rats after general anesthesia using sevoflurane. Specific procedures and the evaluation criterion for local anesthetic effect were same as mentioned in Example 60.

sciatic nerve of rats [4] = assay: Third local anesthetic experiment of rats: hydrogels embedded near the sciatic nerve, motor function (PET)
Description: as §3, §4, §7, §8

[5] = rats, 0.2 ml injected close to sciatic nerve, tested drug 5 mmol/L solution (micelle), lidocaine 2% (84 mmol/L)
[6] = rats, 0.2 ml injected close to sciatic nerve, tested drug 5 mmol/L solution (micelle), lidocaine 2% (84 mmol/L), threshold above 60 g
[7] = rats, 0.2 ml injected close to sciatic nerve, tested drug 5 mmol/L solution (micelle), lidocaine 2% aqueous solution (84 mmol/L)
[8] = rats, 25 mmol/L hydrogel, 0.2 g embedded by surgery near sciatic nerve, lidocaine 2% (84 mmol/L) injected

CCCC(=O)OC[N+](CC)(CC)CC(=O)Nc1c(C)cccc1C [Example4product]
The hold time of motor blocking (sciatic nerve of rats [1]; rat, in vivo): 8 h | Effective local anesthetic time (sciatic nerve of rats [2]; rat, in vivo): 20 min | The hold time of sensation blocking (sciatic nerve of rats [2]; rat, in vivo): 8 h

CC[N+](CC)(COC(=O)C(C)(C)C)CC(=O)Nc1c(C)cccc1C [Example5product]
The hold time of motor blocking (sciatic nerve of rats [1]; rat, in vivo): 8 h | Effective local anesthetic time (sciatic nerve of rats [2]; rat, in vivo): 18 min | The hold time of sensation blocking (sciatic nerve of rats [2]; rat, in vivo): 8 h

CC[N+](CC)(CCOC(C)=O)CC(=O)Nc1c(C)cccc1C [Example6product]
The hold time of motor blocking (sciatic nerve of rats [1]; [5]): 72 h | The hold time of sensation blocking (sciatic nerve of rats [2]; [6]): 72 h | Effective local anesthetic time (sciatic nerve of rats [2]; [7]): 20 min

CCCCCCCCCCCC(=O)OCC[N+](CC)(CC)CC(=O)Nc1c(C)cccc1C [Example7product]
The hold time of motor blocking (sciatic nerve of rats [1]; [5]): 70 h | Effective local anesthetic time (sciatic nerve of rats [3]; [8]): 60 min | The hold time of sensation blocking (sciatic nerve of rats [3]; [8]): 90 h | The hold time of motor blocking (sciatic nerve of rats [4]; [8]): 80 h | The hold time of sensation blocking (sciatic nerve of rats [2]; [6]): 75 h | Effective local anesthetic time (sciatic nerve of rats [2]; [7]): 20 min

CCCCCCCCCCCCCCCC(=O)OCC[N+](CC)(CC)CC(=O)Nc1c(C)cccc1C [Example8product]
The hold time of motor blocking (sciatic nerve of rats [1]; [5]): 70 h | Effective local anesthetic time (sciatic nerve of rats [3]; [8]): 70 min | The hold time of sensation blocking (sciatic nerve of rats [3]; [8]): 92 h | The hold time of motor blocking (sciatic nerve of rats [4]; [8]): 82 h | The hold time of sensation blocking (sciatic nerve of rats [2]; [6]): 73 h | Effective local anesthetic time (sciatic nerve of rats [2]; [7]): 18 min

CCCCCCCCCCCC(=O)OCC[N+](CC)(CC)CC(=O)Nc1c(C)cccc1C [Example9product]
The hold time of motor blocking (sciatic nerve of rats [1]; rat, in vivo): 80 h | Effective local anesthetic time (sciatic nerve of rats [3]; rat, in vivo): 75 min | The hold time of sensation blocking (sciatic nerve of rats [3]; rat, in vivo): 98 h | The hold time of motor blocking (sciatic nerve of rats [4]; rat, in vivo): 80 h | Effective local anesthetic time (sciatic nerve of rats [2]; rat, in vivo): 20 min | The hold time of sensation blocking (sciatic nerve of rats [2]; rat, in vivo): 80 h

CCCCCCCCCCCCCCCC(=O)OCC[N+](CC)(CC)CC(=O)Nc1c(C)cccc1C [Example10product]
The hold time of motor blocking (sciatic nerve of rats [1]; rat, in vivo): 81 h | Effective local anesthetic time (sciatic nerve of rats [3]; rat, in vivo): 85 min | The hold time of sensation blocking (sciatic nerve of rats [3]; rat, in vivo): 80 h | The hold time of motor blocking (sciatic nerve of rats [4]; rat, in vivo): 72 h | Effective local anesthetic time (sciatic nerve of rats [2]; rat, in vivo): 20 min | The hold time of sensation blocking (sciatic nerve of rats [2]; rat, in vivo): 81 h

CCOC(=O)OCC[N+](CC)(CC)CC(=O)Nc1c(C)cccc1C [Example11product]
The hold time of motor blocking (sciatic nerve of rats [1]; rat, in vivo): 82 h | Effective local anesthetic time (sciatic nerve of rats [2]; rat, in vivo): 20 min | The hold time of sensation blocking (sciatic nerve of rats [2]; rat, in vivo): 82 h

CCCCOC(=O)OCC[N+](CC)(CC)CC(=O)Nc1c(C)cccc1C [Example12product]
The hold time of motor blocking (sciatic nerve of rats [1]; rat, in vivo): 80 h | Effective local anesthetic time (sciatic nerve of rats [2]; rat, in vivo): 20 min | The hold time of sensation blocking (sciatic nerve of rats [2]; rat, in vivo): 80 h

CCCCCCOC(=O)OCC[N+](CC)(CC)CC(=O)Nc1c(C)cccc1C [Example13product]
The hold time of motor blocking (sciatic nerve of rats [1]; rat, in vivo): 79 h | Effective local anesthetic time (sciatic nerve of rats [3]; rat, in vivo): 45 min | The hold time of sensation blocking (sciatic nerve of rats [3]; rat, in vivo): 80 h | The hold time of motor blocking (sciatic nerve of rats [4]; rat, in vivo): 76 h | Effective local anesthetic time (sciatic nerve of rats [2]; rat, in vivo): 19 min | The hold time of sensation blocking (sciatic nerve of rats [2]; rat, in vivo): 79 h

CCCCCCCOC(=O)OCC[N+](CC)(CC)CC(=O)Nc1c(C)cccc1C [Example14product]
The hold time of motor blocking (sciatic nerve of rats [1]; rat, in vivo): 70 h | Effective local anesthetic time (sciatic nerve of rats [3]; rat, in vivo): 45 min | The hold time of sensation blocking (sciatic nerve of rats [3]; rat, in vivo): 81 h | The hold time of motor blocking (sciatic nerve of rats [4]; rat, in vivo): 76 h | Effective local anesthetic time (sciatic nerve of rats [2]; rat, in vivo): 15 min | The hold time of sensation blocking (sciatic nerve of rats [2]; rat, in vivo): 82 h

CCCCCCCOC(=O)OCC[N+](CC)(CC)CC(=O)Nc1c(C)cccc1C [Example15product]
The hold time of motor blocking (sciatic nerve of rats [1]; rat, in vivo): 66 h | Effective local anesthetic time (sciatic nerve of rats [3]; rat, in vivo): 53 min | The hold time of sensation blocking (sciatic nerve of rats [3]; rat, in vivo): 81 h | The hold time of motor blocking (sciatic nerve of rats [4]; rat, in vivo): 79 h | Effective local anesthetic time (sciatic nerve of rats [2]; rat, in vivo): 17 min | The hold time of sensation blocking (sciatic nerve of rats [2]; rat, in vivo): 81 h

CCCCCCCCOC(=O)OCC[N+](CC)(CC)CC(=O)Nc1c(C)cccc1C [Example16product]
The hold time of motor blocking (sciatic nerve of rats [1]; rat, in vivo): 62 h | Effective local anesthetic time (sciatic nerve of rats [3]; rat, in vivo): 56 min | The hold time of sensation blocking (sciatic nerve of rats [3]; rat, in vivo): 82 h | The hold time of motor blocking (sciatic nerve of rats [4]; rat, in vivo): 82 h | Effective local anesthetic time (sciatic nerve of rats [2]; rat, in vivo): 18 min | The hold time of sensation blocking (sciatic nerve of rats [2]; rat, in vivo): 85 h
